“And” between values parts separate entries of the source, which are not always exact repeats. Equal values may be shown once. Read-outs that look alike come from different tables or passages of the source.
How the values were obtained:
[1] = pH of stored samples (Example 8); format: physicochemical; settings: inverted
Experimental: (§1) Experiments were also conducted on the same samples above over the course of the experiments to measure the amount of individual impurities in the samples, pH of the samples, chlorobutanol content, particulate matter, antimicrobial effectiveness, and bacterial endotoxin levels (TABLES 25-42). (NR=no reading; ND=not determined; UI=unidentified impurity).

[2] = cited from earlier work
[3] = system: septic shock and post-cardiotomy vasodilatory shock; settings: seven studies in septic shock and eight studies in post-cardiotomy vasodilatory shock; cited from earlier work
[4] = Chlorobutanol content of stored samples (Example 8); format: physicochemical; settings: inverted
Experimental: as §1

[5] = cited from earlier work; remark: listed apart in the source
[6] = Investigation of pH: vasopressin stability by HPLC after 60° C. for one week (Example 2); format: physicochemical; settings: 10 mM citrate buffer in isotonic saline
Experimental: To determine a possible pH for a vasopressin formulation with good shelf life, vasopressin formulations were prepared in 10 mM citrate buffer diluted in isotonic saline across a range of pH. Stability was assessed via HPLC as in EXAMPLE 1 after incubation of the formulations at 60° C. for one week. FIG. 9 illustrates the results of the experiment. […] At pH 3.5, the percent label claim (% LC) of vasopressin was highest, and the proportion of total impurities was lowest.

bacterial = assay: In vitro bacterial mutagenicity (Ames) test
[7] = format: physicochemical
[8] = system: Chinese hamster ovary (CHO) cell; assay: In vitro Chinese hamster ovary (CHO) cell chromosome aberration test; format: cell-based
[9] = Effect of pH 3.5-4.5 on vasopressin formulations, four weeks at 25° C. or 40° C. (Example 9); format: physicochemical
Experimental: To test of effect of pH on vasopressin formulations, solutions containing 20 units/mL vasopressin, adjusted to pH 3.5, 3.6, 3.7, 3.8, 3.9, 4, 4.1, 4.2, 4.3, 4.4, or 4.5 with 10 mM acetate buffer, were prepared. One mL of each of the vasopressin formulations was then filled into 10 cc vials.
The vasopressin formulations were stored for four weeks at: (i) 25° C.; or (ii) 40° C., and the assay (% label claim; vasopressin remaining) and % total impurities after four weeks were measured using the methods described in EXAMPLE 1. FIGS. 11 and 12 below display the results of the experiments at 25° C. The results of the experiments at 40° C. are included in FIGS. 13 and 14.

## NC(=O)CC[C@@H]1NC(=O)[C@H](Cc2ccccc2)NC(=O)[C@H](Cc2ccc(O)cc2)NC(=O)[C@@H](N)CSSC[C@@H](C(=O)N2CCC[C@H]2C(=O)N[C@@H](CCCN=C(N)N)C(=O)NCC(N)=O)NC(=O)[C@H](CC(N)=O)NC1=O [Vasopressin, Cyclo (1-6) L-Cysteinyl-L-Tyrosyl-L-Phenylalanyl-L-Glutaminyl-L-Asparaginyl-L-Cysteinyl-L-Prolyl-L-Arginyl-L-Glycinamide]
[1]; 5° C., 1 month
  pH: 3.5 and 3.6
[1]; 5° C., 2 months
  pH: 3.5 and 3.6
[1]; 5° C., 3 months
  pH: 3.5 and 3.6
[1]; 5° C., 6 months
  pH: 3.5 and 3.6
[1]; 5° C., 9 months
  pH: 3.5 and 3.6
[1]; 5° C., 12 months
  pH: 3.5 and 3.6
[1]; 5° C., 18 months
  pH: 3.8 and 3.6 and 3.5
[1]; 5° C., 24 months
  pH: 3.5 and 3.6
[1]; 5° C., Initial
  pH: 3.5 and 3.6
[1]; 40° C., 1 month
  pH: 3.3
[1]; 40° C., 2 months
  pH: 3.2
[1]; 40° C., 3 months
  pH: 3.1
[1]; 40° C., Initial
  pH: 3.5
[2]; human, in vivo
  dose excreted unchanged in urine: about 6%
[2]; infusion rates 0.01-0.1 units/minute
  apparent half-life: ≤ 10 min
[3]
  systolic and mean blood pressure following administration: Increases in systolic and mean blood pressure
[4]; 5° C., 1 month
  Chlorobutanol: 0.49% w/v and 0.48% w/v
[4]; 5° C., 2 months
  Chlorobutanol: 0.48% w/v and 0.47% w/v
[4]; 5° C., 3 months
  Chlorobutanol: 0.48% w/v and 0.47% w/v
[4]; 5° C., 6 months
  Chlorobutanol: 0.47% w/v and 0.48% w/v
[4]; 5° C., 9 months
  Chlorobutanol: 0.48% w/v and 0.47% w/v
[4]; 5° C., 12 months
  Chlorobutanol: 0.48% w/v and 0.49% w/v
[4]; 5° C., 18 months
  Chlorobutanol: 0.49% w/v and 0.48% w/v
[4]; 5° C., 24 months
  Chlorobutanol: 0.49% w/v and 0.48% w/v
[4]; 5° C., Initial
  Chlorobutanol: 0.48% w/v and 0.47% w/v
[4]; 40° C., 1 month
  Chlorobutanol: 0.48% w/v
[4]; 40° C., 2 months
  Chlorobutanol: 0.50% w/v
[4]; 40° C., 3 months
  Chlorobutanol: 0.47% w/v
[4]; 40° C., Initial
  Chlorobutanol: 0.49% w/v
[5]; at term
  increase of clearance of vasopressin in pregnancy: up to 5 fold
[5]; first trimester
  clearance of vasopressin in pregnancy: only slightly increased
[5]; third trimester
  increase of clearance of vasopressin in pregnancy: about 4 fold
[6]
  pH at which the greatest level of stability was observed (highest % LC, lowest total impurities): 3.5
bacterial
  bacterial mutagenicity (Ames) test result: negative
[7]; pH 3.6
  pH with lowest level of impurities within pH 3.6 to 3.8: 3.8
[7]; pH 3.7
  pH with lowest level of impurities within pH 3.7 to 3.8: 3.8
[8]
  CHO cell chromosome aberration test result: negative
[9]; 25° C.
  pH providing the highest stability: 3.7
  pH with lowest level of impurities within pH 3.6 to 3.8: 3.8
[9]; 40° C.
  pH providing the highest stability: 3.6
  pH with lowest level of impurities within pH 3.6 to 3.8: 3.8

Reference: US9968649B2, “Vasopressin formulations for use in treatment of hypotension” (Par Pharmaceutical, Inc., priority 2015, dated 2018)
